The results in this text go back to US8551999B2, “Heterocyclic compound and pharmaceutical composition thereof” (Otsuka Pharmaceutical Co., Ltd., priority 2007, dated 2013).

Take `COc1ccc(CN2CCN(C(=O)c3cc4cc(Oc5cc(C)c(NC(=O)c6ccc(C(F)(F)F)cc6)cn5)ccc4n3C)CC2)cc1.O=C(O)C(=O)O` [Example 433, N-(6-{2-[4-(4-Methoxybenzyl)piperazine-1-carbonyl]-1-methyl-1H-indol-5-yloxy}-4-methylpyridin-3-yl)-4-trifluoromethylbenzamide oxalate]: the melting point lay within 144 to 147 °C.

`CN(C(=O)c1ccc(C(F)(F)F)cc1)c1ccc(Oc2ccc3c(c2)cc(C(=O)N2CCN(Cc4ccc5c(c4)OC(F)(F)O5)CC2)n3C)nc1.O=C(O)C(=O)O` [Example 439, N-(6-{2-[4-(2,2-Difluorobenzo[1,3]dioxol-5-ylmethyl)piperazine-1-carbonyl]-1-methyl-1H-indol-5-yloxy}pyridin-3-yl)-N-methyl-4-tri-fluoromethylbenzamide oxalate] gave a melting point of 155.7 to 156.9 °C.

`Br.Cn1c(C(=O)N2CCN(Cc3ccc(OCCF)cc3)CC2)cc2ccc(Oc3ccc(NC(=O)c4ccc(Cl)c(Cl)c4)cn3)cc21` [Example 464, 3,4-Dichloro-N-[6-(2-{4-[4-(2-fluoroethoxy)benzyl]piperazine-1-carbonyl}-1-methyl-1H-indol-6-yloxy)pyridin-3-yl]benzamide hydrobromide]: the melting point is 232.4 to 234.2 °C.

`Br.Cn1c(C(=O)N2CCN(Cc3ccc4c(c3)OCO4)CC2)cc2cc(Oc3ccc(NC(=O)c4ccc(C(F)(F)F)cc4)cn3)ccc21` [Example 8, N-{6-[2-(4-Benzo[1,3]dioxol-5-ylmethylpiperazine-1-carbonyl)-1-methyl-1H-indol-5-yloxy]pyridin-3-yl}-4-trifluoromethylbenzamide hydrobromide] showed a melting point of 240 to 244 °C.

Take `Br.CC(C)Oc1ccc(CN2CCN(C(=O)c3cc4ccc(Oc5ccc(NC(=O)c6ccc(OC(F)(F)F)cc6)cn5)cc4n3C)CC2)cc1` [Example 251, N-(6-{2-[4-(4-Isopropoxybenzyl)piperazine-1-carbonyl]-1-methyl-1H-indol-6-yloxy}pyridin-3-yl)-4-trifluoromethoxybenzamide hydrobromide]: the melting point is 265 to 267 °C (dec.).

`Br.CN(C(=O)c1ccc(Cl)c(Cl)c1)c1ccc(Oc2ccc3cc(C(=O)N4CCN(Cc5ccc(OC(CF)CF)cc5)CC4)n(C)c3c2)nc1` [Example 485, 3,4-Dichloro-N-[6-(2-{4-[4-(2-fluoro-1-fluoromethylethoxy)-benzyl]piperazine-1-carbonyl}-1-methyl-1H-indol-6-yloxy)pyridin-3-yl]-N-methylbenzamide hydrobromide] returned a melting point of 188.2 to 191.8 °C.

Regarding `CCOc1ccc(CN2CCN(C(=O)c3cc4cc(Oc5ncc(NC(=O)c6ccc(Cl)c(Cl)c6)cn5)ccc4n3C)CC2)cc1` [Example 384, 3,4-Dichloro-N-(2-{2-[4-(4-ethoxybenzyl)piperazine-1-carbonyl]-1-methyl-1H-indol-5-yloxy}pyrimidin-5-yl)benzamide], the melting point was in the range of 156 to 157 °C.

Molecule `Br.CC(C)Oc1ccc(CN2CCN(C(=O)c3cc4ccc(Oc5ccc(N(C)C(=O)c6ccc(Cl)c(Cl)c6)cn5)cc4n3C)CC2)cc1` [Example 486, 3,4-Dichloro-N-(6-{2-[4-(4-isopropoxybenzyl)piperazine-1-carbonyl]-1-methyl-1H-indol-6-yloxy}pyridin-3-yl)-N-methyl-benzamide hydrobromide] gave a melting point of 220.2 to 223.5 °C.

Turning to `CN(c1ccc(Oc2ccc3cc(C(=O)N4CCN(Cc5ccc(OCC(F)(F)F)cc5)CC4)n(C)c3c2)nc1)S(C)(=O)=O.Cl`, the melting point is 252.7 to 253.6 °C.

On to `COc1ccc(C(=O)N2CCN(C(=O)c3cc4cc(Oc5ccc(N(C)C(=O)c6ccc(C(F)(F)F)cc6)cn5)ccc4n3C)CC2)cc1` [Example 241, N-(6-{2-[4-(4-Methoxybenzoyl)piperazine-1-carbonyl]-1-methyl-1H-indol-5-yloxy}pyridin-3-yl)-N-methyl-4-trifluoromethylbenzamide], for which the melting point lay within 126 to 128 °C.

On to `Br.CN(C(=O)c1ccc(OC(F)F)cc1)c1ccc(Oc2ccc3cc(C(=O)N4CCN(Cc5ccc(OC(F)F)cc5)CC4)n(C)c3c2)nc1` [Example 282, 4-Difluoromethoxy-N-(6-{2-[4-(4-difluoromethoxybenzyl)piperazine-1-carbonyl]-1-methyl-1H-indol-6-yloxy}pyridin-3-yl)-N-methyl-benzamide hydrobromide], for which the melting point was 198.7 to 200.5 °C.

The molecule `Br.Cn1c(C(=O)N2CCN(Cc3ccc(F)cc3)CC2)cc2cc(Oc3ccc(NC(=O)c4ccc(C(F)(F)F)cc4)cn3)ccc21` [Example 551, N-(6-{2-[4-(4-Fluorobenzyl)piperazine-1-carbonyl]-1-methyl-1H-indol-5-yloxy}pyridin-3-yl)-4-trifluoromethylbenzamide hydrobromide] displayed a melting point of 254 to 257 °C.

In turn, `Br.CN(C(=O)c1ccc(OC(F)F)cc1)c1ccc(Oc2ccc3cc(C(=O)N4CCN(Cc5ccc(OCC(F)(F)F)cc5)CC4)n(C)c3c2)nc1` [Example 284, 4-Difluoromethoxy-N-methyl-N-[6-(1-methyl-2-{4-[4-(2,2,2-tri-fluoroethoxy)benzyl]piperazine-1-carbonyl}-1H-indol-6-yloxy)-pyridin-3-yl]benzamide hydrobromide] showed a melting point of 203.8 to 205.6 °C.

The molecule `CN(c1ccc(Oc2ccc3cc(C(=O)N4CCN(Cc5ccc(OCC(F)F)cc5)CC4)n(C)c3c2)nc1)S(=O)(=O)c1ccc(Cl)c(Cl)c1` [Example 512, 3,4-Dichloro-N-[6-(2-{4-[4-(2,2-difluoroethoxy)benzyl]piperazine-1-carbonyl}-1-methyl-1H-indol-6-yloxy)pyridin-3-yl]-N-methyl-benzenesulfonamide] returned a melting point of 168.4 to 168.6 °C.

Take `Br.Br.CCOc1ccc(CN2CCN(C(=O)c3cc4cc(Oc5ccc(NC(=O)c6ccc(Cl)c(Cl)c6)cn5)ccc4n3C)CC2)nc1` [Example 378, 3,4-Dichloro-N-(6-{2-[4-(5-ethoxypyridin-2-ylmethyl)piperazine-1-carbonyl]-1-methyl-1H-indol-5-yloxy}pyridin-3-yl)benzamide dihydrobromide]: the melting point lay in the range of 218 to 220 °C.

For the molecule `Br.COc1ccc(CN2CCN(C(=O)c3cc4cc(Oc5ccc(NC(=O)c6ccc(C(F)(F)F)c(C)c6)cn5)ccc4n3C)CC2)cc1` [Example 19, N-(6-{2-[4-(4-Methoxybenzyl)piperazine-1-carbonyl]-1-methyl-1H-indol-5-yloxy}pyridin-3-yl)-3-methyl-4-trifluoromethylbenzamide hydrobromide], the melting point lay within 188 to 191 °C.

Regarding `Br.Cn1c(C(=O)N2CCN(Cc3ccc(OC(F)(F)C(F)F)cc3)CC2)cc2ccc(Oc3ccc(NC(=O)c4ccc(C(F)(F)F)cc4)cn3)cc21` [Example 250, N-[6-(1-Methyl-2-{4-[4-(1,1,2,2-tetrafluoroethoxy)benzyl]-piperazine-1-carbonyl}-1H-indol-6-yloxy)pyridin-3-yl]-4-tri-fluoromethylbenzamide hydrobromide], the melting point was 279 to 282 °C (dec.).

In the case of `COc1ccc(CN2CCN(C(=O)c3cc4cc(Oc5ccc(N(C)C(=O)c6ccc(C(F)(F)F)cc6O)cn5)ccc4n3C)CC2)cc1.O=C(O)C(=O)O` [Example 592, 2-Hydroxy-N-(6-{2-[4-(4-methoxybenzyl)piperazine-1-carbonyl]-1-methyl-1H-indol-5-yloxy}pyridin-3-yl)-N-methyl-4-trifluoromethyl-benzamide oxalate], the melting point fell in the range of 171 to 173 °C.

For `Br.Cn1c(C(=O)N2CCN(Cc3ccccn3)CC2)cc2c(Oc3ccc(NC(=O)c4ccc(C(F)(F)F)cc4)cn3)cccc21` [Example 246, N-{6-[1-Methyl-2-(4-pyridin-2-ylmethylpiperazine-1-carbonyl)-1H-indol-4-yloxy]pyridin-3-yl}-4-trifluoromethylbenzamide hydrobromide], the melting point was in the range of 186 to 189 °C.

Consider `Br.CN(C(=O)c1ccc(Cl)c(Cl)c1)c1ccc(Oc2ccc3cc(C(=O)N4CCN(Cc5ccc(OC(F)F)cc5)CC4)n(C)c3c2)nc1` [Example 488, 3,4-Dichloro-N-(6-{2-[4-(4-difluoromethoxybenzyl)piperazine-1-carbonyl]-1-methyl-1H-indol-6-yloxy}pyridin-3-yl)-N-methyl-benzamide hydrobromide], for which the melting point is 185.6 to 189.3 °C.

As for `COc1ccc(CN2CCN(C(=O)c3cc4cc(Oc5ccc(NC(=O)c6ccc(-n7cccc7)nc6)cn5)ccc4n3C)CC2)cc1` [Example 226, N-(6-{2-[4-(4-Methoxybenzyl)piperazine-1-carbonyl]-1-methyl-1H-indol-5-yloxy}pyridin-3-yl)-6-pyrrol-1-ylnicotinamide], the melting point is 194 to 195 °C.

Molecule `Br.Cn1c(C(=O)N2CCN(Cc3ccc4c(c3)OCO4)CC2)cc2cc(Oc3ccc(NC(=O)c4ccc(Cl)c(Cl)c4)cn3)ccc21` [Example 7, N-{6-[2-(4-Benzo[1,3]dioxol-5-ylmethylpiperazine-1-carbonyl)-1-methyl-1H-indol-5-yloxy]pyridin-3-yl}-3,4-dichlorobenzamide hydrobromide] came in with a melting point of 264 to 269 °C.

In the case of `Br.Br.CN(C(=O)c1ccc(C(F)(F)F)cc1)c1ccc(Oc2ccc3c(c2)cc(C(=O)N2CCN(Cc4ccncc4)CC2)n3C)nc1` [Example 548, N-Methyl-N-{6-[1-methyl-2-(4-pyridin-4-ylmethylpiperazine-1-carbonyl)-1H-indol-5-yloxy]pyridin-3-yl}-4-trifluoromethyl-benzamide dihydrobromide], the melting point fell in the range of 196 to 198 °C.

`CN(c1ccc(Oc2ccc3cc(C(=O)N4CCN(Cc5ccc6c(c5)OC(F)(F)O6)CC4)n(C)c3c2)nc1)S(=O)(=O)c1ccc(Cl)c(Cl)c1` [Example 508, 3,4-Dichloro-N-(6-{2-[4-(2,2-difluorobenzo[1,3]dioxol-5-yl-methyl)piperazine-1-carbonyl]-1-methyl-1H-indol-6-yloxy}pyridin-3-yl)-N-methylbenzenesulfonamide] had a melting point of 149.9 to 151.3 °C.

`Br.CCCOc1ccc(CN2CCN(C(=O)c3cc4ccc(Oc5ccc(NS(=O)(=O)c6ccc(C(F)(F)F)cc6)cn5)cc4n3C)CC2)cc1` [Example 511, N-(6-{1-Methyl-2-[4-(4-propoxybenzyl)piperazine-1-carbonyl]-1H-indol-6-yloxy}pyridin-3-yl)-4-trifluoromethylbenzenesulfonamide hydrobromide] yielded a melting point of 223.7 to 224.8 °C.
